Laboratory results taken from ChEMBL document CHEMBL3526033, “Identification of human liver cytochrome P450 enzymes involved in the metabolism of SCH 530348 (Vorapaxar), a potent oral thrombin protease-activated receptor 1 antagonist” (Drug Metab Dispos, 2011).
One block for each molecule: values may come before it.

Experiments:
Type in all cases: ADME
Cytochrome P450 2A6 = Cytochrome P450 2A6 (Homo sapiens, UniProt P11509); assay: Activity of human recombinant CYP2A6 assessed as enzyme-mediated 2-hydroxyethyl (1R,3aR,4aR,6R,8aR,9S,9aS)-9-((E)-2-(5-(3-fluorophenyl)pyridin-2-yl)vinyl)-1-methyl-3-oxododecahydronaphtho[2,3-c]furan-6-ylcarbamate formation at 25 uM after 120 mins by LC-MS/MS analysis in presence of NADPH; details: 2 h
Cytochrome P450 1A1 = target: T1, Cytochrome P450 1A1 (Homo sapiens, UniProt P04798); assay: Activity of human recombinant CYP1A1 assessed as enzyme-mediated (3R,3aS,4S,4aR,7R,8aR,9aR)-7-amino-4-((E)-2-(5-(3-fluorophenyl)pyridin-2-yl)vinyl)-3-methyldecahydronaphtho[2,3-c]furan-1(3H)-one formation at 25 uM after 120 mins by LC-MS/MS analysis in presence of NADPH; details: 2 h
T1 sequence (P04798 whole entry): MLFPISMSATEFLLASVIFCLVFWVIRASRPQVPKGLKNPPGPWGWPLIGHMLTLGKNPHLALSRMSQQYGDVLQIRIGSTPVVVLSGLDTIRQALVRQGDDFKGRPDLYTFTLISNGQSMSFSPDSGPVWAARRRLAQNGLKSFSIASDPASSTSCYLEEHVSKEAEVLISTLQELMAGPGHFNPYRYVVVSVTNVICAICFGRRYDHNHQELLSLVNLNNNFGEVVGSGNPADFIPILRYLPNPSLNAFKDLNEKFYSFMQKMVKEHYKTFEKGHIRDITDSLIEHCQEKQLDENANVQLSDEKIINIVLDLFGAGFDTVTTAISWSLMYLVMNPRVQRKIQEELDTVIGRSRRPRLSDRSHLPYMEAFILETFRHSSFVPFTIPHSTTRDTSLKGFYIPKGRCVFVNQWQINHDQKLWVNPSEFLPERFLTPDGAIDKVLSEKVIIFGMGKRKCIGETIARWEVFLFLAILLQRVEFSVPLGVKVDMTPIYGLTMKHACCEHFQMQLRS

Cytochrome P450 4F3 = target: T2, Cytochrome P450 4F3 (Homo sapiens, UniProt Q08477); assay: Activity of human recombinant CYP4F3B assessed as enzyme-mediated drug metabolism treated with 25 uM vorapaxar after 120 mins by LC-MS/MS analysis in presence of NADPH; details: 2 h
T2 sequence (Q08477 whole entry): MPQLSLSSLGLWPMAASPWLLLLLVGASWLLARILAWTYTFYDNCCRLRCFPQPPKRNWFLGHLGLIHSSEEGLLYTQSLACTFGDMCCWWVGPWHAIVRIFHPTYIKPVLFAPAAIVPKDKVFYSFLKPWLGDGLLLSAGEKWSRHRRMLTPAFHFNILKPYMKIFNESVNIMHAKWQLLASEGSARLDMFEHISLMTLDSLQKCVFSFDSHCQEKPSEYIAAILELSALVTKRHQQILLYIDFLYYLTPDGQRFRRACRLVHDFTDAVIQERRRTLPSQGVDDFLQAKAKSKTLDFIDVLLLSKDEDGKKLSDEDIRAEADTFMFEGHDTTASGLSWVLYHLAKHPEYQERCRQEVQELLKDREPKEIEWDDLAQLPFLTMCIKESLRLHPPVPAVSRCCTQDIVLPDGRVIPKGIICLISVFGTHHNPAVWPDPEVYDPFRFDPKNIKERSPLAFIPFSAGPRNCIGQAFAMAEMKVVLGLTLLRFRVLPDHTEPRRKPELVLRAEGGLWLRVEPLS

Cytochrome P450 4A11 = Cytochrome P450 4A11 (Homo sapiens, UniProt Q02928); assay: Activity of human recombinant CYP4A11 assessed as enzyme-mediated drug metabolism treated with 25 uM vorapaxar after 120 mins by LC-MS/MS analysis in presence of NADPH; details: 2 h
CYP2B6 = CYP2B6 (Homo sapiens, UniProt P20813); assay: Activity of human recombinant CYP2B6 assessed as enzyme-mediated drug metabolism at 10 uM after 120 mins by LC-MS/MS analysis in presence of NADPH; details: read-out: Compound recovery
Cytochrome P450 2J2 = target: T3, Cytochrome P450 2J2 (Homo sapiens, UniProt P51589); assay: Drug metabolism assessed as human recombinant CYP2J2-mediated 2-hydroxyethyl (1R,3aR,4aR,6R,8aR,9S,9aS)-9-((E)-2-(5-(3-fluorophenyl)pyridin-2-yl)vinyl)-1-methyl-3-oxododecahydronaphtho[2,3-c]furan-6-ylcarbamate formation at 25 uM after 120 mins by LC-MS/MS analysis in presence of ketoconazole; details: recombinant enzyme, 2 h
T3 sequence (P51589 whole entry): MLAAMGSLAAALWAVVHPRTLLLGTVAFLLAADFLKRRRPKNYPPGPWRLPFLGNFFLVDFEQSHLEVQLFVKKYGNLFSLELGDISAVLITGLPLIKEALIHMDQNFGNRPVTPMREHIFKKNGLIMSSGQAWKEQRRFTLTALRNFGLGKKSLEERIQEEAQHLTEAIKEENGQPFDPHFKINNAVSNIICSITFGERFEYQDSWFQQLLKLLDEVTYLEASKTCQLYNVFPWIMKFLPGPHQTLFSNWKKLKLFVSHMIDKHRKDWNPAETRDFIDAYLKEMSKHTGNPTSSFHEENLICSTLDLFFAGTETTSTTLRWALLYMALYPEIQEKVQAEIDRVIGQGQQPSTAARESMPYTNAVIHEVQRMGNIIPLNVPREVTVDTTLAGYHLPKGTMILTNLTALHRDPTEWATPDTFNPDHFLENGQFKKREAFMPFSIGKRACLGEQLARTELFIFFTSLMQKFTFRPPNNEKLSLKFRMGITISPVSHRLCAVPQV

Liver microsome [1] = assay: Drug metabolism in human liver microsomes assessed as (3R,3aS,4S,4aR,7R,8aR,9aR)-7-amino-4-((E)-2-(5-(3-fluorophenyl)pyridin-2-yl)vinyl)-3-methyldecahydronaphtho[2,3-c]furan-1(3H)-one formation at 10 to 25 uM after 120 mins by LC-MS/MS analysis in presence of CYP3A4-specific inhibitory monoclonal antibody; details: 2 h
Liver microsome [2] = assay: Drug metabolism in human liver microsomes assessed as (3R,3aS,4S,4aR,7R,8aR,9aR)-7-amino-4-((E)-2-(5-(3-fluorophenyl)pyridin-2-yl)vinyl)-3-methyldecahydronaphtho[2,3-c]furan-1(3H)-one formation at 10 to 25 uM after 120 mins by LC-MS/MS analysis in presence of quinidine; details: 2 h
Liver microsome [3] = assay: Drug metabolism in human liver microsomes overexpressing CYP3A4 assessed as (3R,3aS,4S,4aR,7R,8aR,9aR)-7-amino-4-((E)-2-(5-(3-fluorophenyl)pyridin-2-yl)vinyl)-3-methyldecahydronaphtho[2,3-c]furan-1(3H)-one formation at 25 uM after 120 mins by LC-MS/MS analysis in presence of ticlopidine; details: 2 h
Liver microsome [4] = assay: Drug metabolism in human liver microsomes assessed as (3R,3aS,4S,4aR,7R,8aR,9aR)-7-amino-4-((E)-2-(5-(3-fluorophenyl)pyridin-2-yl)vinyl)-3-methyldecahydronaphtho[2,3-c]furan-1(3H)-one formation at 10 to 25 uM after 120 mins by LC-MS/MS analysis in presence of CYP2B6-specific inhibitory antibody; details: 2 h
Cytochrome P450 3A4 = Cytochrome P450 3A4 (Homo sapiens, UniProt P08684); assay: Drug metabolism assessed as human recombinant CYP3A4-mediated 2-hydroxyethyl (1R,3aR,4aR,6R,8aR,9S,9aS)-9-((E)-2-(5-(3-fluorophenyl)pyridin-2-yl)vinyl)-1-methyl-3-oxododecahydronaphtho[2,3-c]furan-6-ylcarbamate formation at 25 uM after 120 mins by LC-MS/MS analysis in presence of astemizole; details: recombinant enzyme, 2 h
Cytochrome P450 3A4, sequence (P08684 whole entry): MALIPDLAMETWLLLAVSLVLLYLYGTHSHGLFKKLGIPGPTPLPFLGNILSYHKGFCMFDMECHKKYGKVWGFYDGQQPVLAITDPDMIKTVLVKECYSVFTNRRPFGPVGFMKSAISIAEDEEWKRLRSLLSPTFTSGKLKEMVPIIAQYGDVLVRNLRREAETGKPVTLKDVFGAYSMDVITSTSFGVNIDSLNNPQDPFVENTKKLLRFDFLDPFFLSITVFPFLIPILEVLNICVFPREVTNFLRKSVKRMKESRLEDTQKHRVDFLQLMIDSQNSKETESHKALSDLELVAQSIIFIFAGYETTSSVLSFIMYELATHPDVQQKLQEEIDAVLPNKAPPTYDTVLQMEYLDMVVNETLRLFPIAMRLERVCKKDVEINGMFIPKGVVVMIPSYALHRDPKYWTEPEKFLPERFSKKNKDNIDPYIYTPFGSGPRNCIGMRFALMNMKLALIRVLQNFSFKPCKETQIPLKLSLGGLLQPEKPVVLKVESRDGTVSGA

Cytochrome P450 4A11, sequence (Q02928 whole entry): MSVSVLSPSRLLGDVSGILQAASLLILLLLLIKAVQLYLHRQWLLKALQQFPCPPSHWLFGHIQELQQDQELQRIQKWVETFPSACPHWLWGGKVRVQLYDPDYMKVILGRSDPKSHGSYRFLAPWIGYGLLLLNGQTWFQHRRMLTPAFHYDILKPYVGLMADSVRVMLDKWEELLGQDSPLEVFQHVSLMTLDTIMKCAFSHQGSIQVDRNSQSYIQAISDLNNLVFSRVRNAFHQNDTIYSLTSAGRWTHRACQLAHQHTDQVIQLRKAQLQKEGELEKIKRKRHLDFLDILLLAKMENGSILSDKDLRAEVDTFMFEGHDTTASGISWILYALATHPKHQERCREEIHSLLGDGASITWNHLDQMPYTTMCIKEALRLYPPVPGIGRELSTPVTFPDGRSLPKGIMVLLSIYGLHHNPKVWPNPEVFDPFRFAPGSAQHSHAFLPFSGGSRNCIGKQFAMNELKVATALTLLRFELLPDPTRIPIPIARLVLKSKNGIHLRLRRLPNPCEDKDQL
Cytochrome P450 2A6, sequence (P11509 whole entry): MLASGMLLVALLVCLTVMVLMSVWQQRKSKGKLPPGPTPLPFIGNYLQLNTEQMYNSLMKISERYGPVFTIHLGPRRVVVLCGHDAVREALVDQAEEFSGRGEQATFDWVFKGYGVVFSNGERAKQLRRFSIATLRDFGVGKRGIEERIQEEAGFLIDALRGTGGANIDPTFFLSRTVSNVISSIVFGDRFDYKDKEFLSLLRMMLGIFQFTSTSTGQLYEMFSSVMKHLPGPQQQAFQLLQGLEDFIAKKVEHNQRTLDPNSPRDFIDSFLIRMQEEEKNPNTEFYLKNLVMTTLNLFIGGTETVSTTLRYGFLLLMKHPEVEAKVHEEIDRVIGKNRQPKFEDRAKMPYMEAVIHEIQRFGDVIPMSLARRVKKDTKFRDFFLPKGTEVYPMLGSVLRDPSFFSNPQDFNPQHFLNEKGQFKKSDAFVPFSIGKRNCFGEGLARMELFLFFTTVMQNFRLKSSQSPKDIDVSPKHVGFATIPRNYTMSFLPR
CYP2B6, sequence (P20813 whole entry): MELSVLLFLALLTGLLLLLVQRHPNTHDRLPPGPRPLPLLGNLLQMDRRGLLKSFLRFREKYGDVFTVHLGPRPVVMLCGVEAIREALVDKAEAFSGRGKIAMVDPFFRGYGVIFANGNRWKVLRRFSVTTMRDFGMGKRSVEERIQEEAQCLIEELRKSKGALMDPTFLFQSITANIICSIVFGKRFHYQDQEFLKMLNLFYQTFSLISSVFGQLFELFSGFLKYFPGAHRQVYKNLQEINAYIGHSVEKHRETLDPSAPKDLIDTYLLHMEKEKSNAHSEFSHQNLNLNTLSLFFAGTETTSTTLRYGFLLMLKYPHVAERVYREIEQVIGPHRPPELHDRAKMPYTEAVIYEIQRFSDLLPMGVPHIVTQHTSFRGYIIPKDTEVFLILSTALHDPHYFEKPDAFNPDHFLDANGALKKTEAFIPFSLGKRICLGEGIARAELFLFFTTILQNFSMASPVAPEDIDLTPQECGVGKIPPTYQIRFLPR

- Drug metabolism (Cytochrome P450 2A6): metabolite_detected
- Drug metabolism (Cytochrome P450 1A1): metabolite_detected
Structure (SMILES): CCOC(=O)N[C@@H]1CC[C@@H]2[C@@H](C1)C[C@H]1C(=O)O[C@H](C)[C@H]1[C@H]2/C=[14CH]/c1ccc(-c2cccc(F)c2)cn1

- Drug metabolism (Cytochrome P450 4F3): metabolite_detected
- Drug metabolism (Cytochrome P450 4A11): metabolite_detected
Structure (SMILES): C[C@H]1OC(=O)[C@@H]2C[C@@H]3C[C@H](NC(=O)OCCO)CC[C@H]3[C@H](/C=C/c3ccc(-c4cccc(F)c4)cn3)[C@H]12

- remaining at 2 h, 10 µM (CYP2B6): 97.7%
- Drug metabolism (Cytochrome P450 2J2): metabolite_not_detected
- Drug metabolism (Liver microsome [1]): metabolite_not_detected
- Drug metabolism (Liver microsome [2]): metabolite_detected
- Drug metabolism (Liver microsome [3]): metabolite_not_detected
- Drug metabolism (Liver microsome [4]): metabolite_detected
- Drug metabolism (Cytochrome P450 3A4): metabolite_not_detected
Structure (SMILES): CCOC(=O)N[C@@H]1CC[C@@H]2[C@@H](C1)C[C@H]1C(=O)O[C@H](C)[C@H]1[C@H]2/C=C/c1ccc(-c2cccc(F)c2)cn1 [VORAPAXAR]
